Experimental data reported in ChEMBL document CHEMBL1649260, “Case of fatal Blastoschizomyces capitatus infection occurring in a patient receiving empiric micafungin therapy” (2009).
Converted amounts (≈) assume the structure as drawn. Numbered stars: 1 amine (or outer) side, 2 acyl side, 3 side chain; on linkers, the order of the positions; unused ones are H or OH. Bridge positions count the residues as written; N and C are the ends. Square brackets hold non-standard residues; d marks the D form. Peptide text beside a SMILES is read from it. * marks the point of attachment. hTyr(3S-OH,4S-OH,3'-OSO3H) = N[C@H](C(=O)O)[C@H](O)[C@@H](O)c1ccc(O)c(OS(=O)(=O)O)c1; pTerphenylCO(4''-OnC5H11) = CCCCCOc1ccc(-c2ccc(-c3ccc(C(=O)*)cc3)cc2)cc1; Orn(4R-OH,5R-OH) = O=C([C@H](C[C@@H](O)[C@@H](O)N[*:3])N[*:1])[*:2]; hTyr(3S-OH,4S-OH) = N[C@H](C(=O)O)[C@H](O)[C@@H](O)c1ccc(O)cc1; Pro(3S-OH,4S-Me) = C[C@H]1CN[C@H](C(=O)O)[C@H]1O; X1 = CCCCCOc1ccc(-c2cc(-c3ccc(C(=O)*)cc3)no2)cc1; Gln(3R-OH) = NC(=O)C[C@@H](O)[C@H](N)C(=O)O; Hyp = O=C(O)[C@@H]1C[C@@H](O)CN1

System: Magnusiomyces capitatus
Experiment: Antimicrobial activity against Blastoschizomyces capitatus by microdilution method
Assay type: functional

Work on `C[C@@H]1[C@H](O)[C@@H](C)/C=C/C=C/C=C/C=C/C=C/C=C/C=C/[C@H](O[C@@H]2O[C@H](C)[C@@H](O)[C@H](N)[C@@H]2O)C[C@@H]2O[C@](O)(C[C@@H](O)C[C@@H](O)[C@H](O)CC[C@@H](O)C[C@@H](O)CC(=O)O[C@H]1C)C[C@H](O)[C@H]2C(=O)O` [AMPHOTERICIN B] yielded an MIC of 0.5 µg/mL (≈ 0.541 µM).
In the case of `CCCCCOc1ccc(-c2ccc(-c3ccc(C(=O)N[C@H]4C[C@@H](O)[C@@H](O)NC(=O)[C@@H]5[C@@H](O)[C@@H](C)CN5C(=O)[C@H]([C@@H](C)O)NC(=O)[C@H]([C@H](O)[C@@H](O)c5ccc(O)cc5)NC(=O)[C@@H]5C[C@@H](O)CN5C(=O)[C@H]([C@@H](C)O)NC4=O)cc3)cc2)cc1` [ANIDULAFUNGIN] ({pTerphenylCO(4''-OnC5H11)}-[Orn(4R-OH,5R-OH)]T[Hyp][hTyr(3S-OH,4S-OH)]T[Pro(3S-OH,4S-Me)]; lactam 1-C), the MIC is reported as 0.5 µg/mL (≈ 0.438 µM).
`CC[C@H](C)C[C@H](C)CCCCCCCCC(=O)N[C@H]1C[C@@H](O)[C@@H](NCCN)NC(=O)[C@@H]2[C@@H](O)CCN2C(=O)[C@H]([C@H](O)CCN)NC(=O)[C@H]([C@H](O)[C@@H](O)c2ccc(O)cc2)NC(=O)[C@@H]2C[C@@H](O)CN2C(=O)[C@H]([C@@H](C)O)NC1=O` [CASPOFUNGIN] was tested, and the MIC was 8 µg/mL (≈ 7.32 µM).
`OC(Cn1cncn1)(Cn1cncn1)c1ccc(F)cc1F` [FLUCONAZOLE] was tested, and the MIC was 4 µg/mL (≈ 13.1 µM).
`Nc1nc(=O)[nH]cc1F` [FLUCYTOSINE] was tested, and the MIC was ≤ 0.06 µg/mL.
With `CCC(C)n1ncn(-c2ccc(N3CCN(c4ccc(OCC5COC(Cn6cncn6)(c6ccc(Cl)cc6Cl)O5)cc4)CC3)cc2)c1=O` (centres undefined) [ITRACONAZOLE] the MIC was 0.06 µg/mL (≈ 0.085 µM).
In the case of `CCCCCOc1ccc(-c2cc(-c3ccc(C(=O)N[C@H]4C[C@@H](O)[C@@H](O)NC(=O)[C@@H]5[C@@H](O)[C@@H](C)CN5C(=O)[C@H]([C@H](O)CC(N)=O)NC(=O)[C@H]([C@H](O)[C@@H](O)c5ccc(O)c(OS(=O)(=O)O)c5)NC(=O)[C@@H]5C[C@@H](O)CN5C(=O)[C@H]([C@@H](C)O)NC4=O)cc3)no2)cc1` [MICAFUNGIN] (X1-[Orn(4R-OH,5R-OH)]T[Hyp][hTyr(3S-OH,4S-OH,3'-OSO3H)][Gln(3R-OH)][Pro(3S-OH,4S-Me)]; lactam 1-C), the MIC is reported as 0.5 µg/mL (≈ 0.394 µM).
Work on `CC[C@@H]([C@H](C)O)n1ncn(-c2ccc(N3CCN(c4ccc(OC[C@@H]5CO[C@@](Cn6cncn6)(c6ccc(F)cc6F)C5)cc4)CC3)cc2)c1=O` [POSACONAZOLE] yielded an MIC of 0.12 µg/mL (≈ 0.171 µM).
`C[C@@H](c1ncncc1F)[C@](O)(Cn1cncn1)c1ccc(F)cc1F` [VORICONAZOLE] gave an MIC of 0.06 µg/mL (≈ 0.172 µM).
